Measurements from patent publication US20080167272A1, “Thalidomide metabolites and methods of use” (Auckland Uniservices Limited, priority 2005, published 2008).

Tests used:
TNF = assay: LPS-induced TNF production by HPBL in culture; type: cell-based, human; conditions: FIG. 5
Experimental: Blood (20 ml) each from seven healthy volunteers was collected into heparinized tubes, and was overlayed on top of 10 ml of Ficoll-Paque Plus (Amersham Biosciences AB, Uppsala, Sweden) in 50 ml Falcon polypropylene conical tubes (Becton Dickson Labware, Franklin Lakes, N.J.). The tubes were centrifuged for 30 min at 300×g and 4° C., and the layer of cells was removed and re-suspended at 1×10^6 cells/ml in A-MEM medium supplemented with foetal bovine serum (Moregate BioTech Ltd, Hamilton, New Zealand) (10% v/v), streptomycin sulphate (100 μg/ml) and penicillin-G (100 units/ml) (Sigma, St Louis, Mo., USA). Cells were added to a 24-well plate (Nunc, Kamstrup, Roskilde, Denmark) with LPS (Escherichia coli serotype 055:B5; Sigma, St. Louis, Mo., USA) plus thalidomide or CG at 0.04, 0.2, 1, 5, 25 & 100 μg/ml; or PG or PiG at 1, 5 & 25 μg/ml in a final volume of 1 ml. Wells containing cells only and cells plus LPS only were included as controls. After 12 hours of incubation, supernatants were removed and assayed immediately for TNF as described in section 4.
TNF was assayed using a commercially available ELISA kit (OpEIA human or murine TNF kit, PharMingen, San Diego, Calif., USA), according to the manufacturer's instructions. Briefly, samples (100 μl/well) in duplicate together with a serial dilution of TNF (31.25-2000 pg/ml) for the standard curve, were added to flat-bottom 96-well plates pre-coated with immobilised monoclonal anti-TNF antibody and incubated at room temperature for 2 h. The wells were then washed, biotinylated polyclonal antibody to TNF was added, followed by peroxidase-labelled streptavidin, and incubated at room temperature for 1 h. The wells were washed again, and the substrate, tetramethylbenzidine and hydrogen peroxide was added and after 10 min the reaction was stopped with 2 N sulphuric acid. The absorbance at 450 nm was determined using a microtitre plate reader.

Colon 38 tumours = assay: Colon 38 tumour growth in mice, combination with cyclophosphamide; type: in vivo; conditions: CG 100 mg/kg plus cyclophosphamide 220 mg/kg; FIG. 9
Experimental: Mice (C57B1/6 bred at the Animal Resources Unit, University of Auckland, New Zealand) were implanted with Colon 38 tumours, obtained originally from the Mason Research Institute (Auckland, New Zewaland) by transferring 1 mm^3 pieces of the tumour into a subcutaneous opening in the left flank of anaesthetized mice. The mice with tumours were used for growth delay experiments when tumours had reached approximately 3-5 mm in diameter. […] Tumours were measured 2-3 times weekly after treatment and tumour volumes were calculated as 0.52×a^2×b, where a and b are the minor and major axes of the tumour. The arithmetic means and standard errors were calculated for each point, counting cured animals as having zero tumour volume, and expressed as fractions of the pre-treatment volume. Growth delay was determined as the difference in the number of days required for the tumour to reach four times the pre-treatment volume. […]

O=C1CCC(NC(=O)c2ccccc2C(=O)O)C(=O)N1 (stereo not drawn) [CG, 2-{[(2,6-Dioxo-3-piperidinyl)amino]carbonyl}benzoic acid] was tested, and the “effect on LPS-induced TNF production” value (TNF; HPBL, LPS 100 pg/ml, 12 h, all concentrations tested (PG, PiG: 1, 5, 25 μg/ml)) was “significantly decreased LPS-induced TNF levels in a dose-dependent manner”, the “TNF inhibition in vitro compared with thalidomide” value (TNF; human cell system) was “as active as thalidomide” and the “tumour size at day 15 after treatment, combination vs monotherapies” value (Colon 38 tumours) was “significantly smaller than those treated with each of the monotherapies”.
